Laboratory results as given in publication PMC4457802 (PLoS ONE, 2015).
Values after ≈ are worked out from the molar mass of the structure shown. Like-named read-outs stand apart in the source and are kept apart here. Positions of bridges follow the written chain, without caps; N, C: chain ends. Residues, ends and D or L forms follow the SMILES beside them.

What was measured:
human erythrocytes = test: Hemolytic activity assay; type: cell-based; conditions: 250μg/ml; 4% human RBCs in PBS, 1hr, 37°C, absorbance 560 nm, relative to 0.1% Triton X-100, triplicate
Protocol: The hemolytic activity of the peptides was tested using human erythrocytes as described previously. Human red blood cells (RBCs) were freshly collected from a healthy donor, washed three times using sterile phosphate buffered saline (PBS) and centrifuged at 2000 rpm for 10 min until the upper solution became clear. RBCs were diluted to a final concentration of 4%, and 100μl of peptides at different concentrations (1.95 to 250μg/ml) were mixed with equivalent volumes of erythrocyte suspensions. After 1hr of incubation at 37°C, the cells were centrifuged at 2000 rpm for 10 min and the absorbance of the supernatants was measured at 560 nm using GloMax Multi Detection System (Promega, USA). PBS and 0.1% Triton X-100 were used as negative and positive controls, respectively. The assay was done in triplicate, and percentage of hemolysis was calculated using the following formula: 100% hemolysis = 100 (Apeptide-APBS) / (Atriton-APBS). We obtained the blood from the Blood Bank of University […] Medical Centre and ethical clearance for this work was approved by the Scientific and Ethical Committee of UMMC (Ethics Committee/IRB Reference No: 321.4). Written informed consent was obtained for each collection.

K. pneumoniae = type: cell-based
From the text: (§1) Thirty (30) Pneumococcal clinical isolates were obtained from University of Malaya Medical Centre (UMMC). For broad-spectrum activity of AMPs, E. coli ATCC 25922, Staphylococcus aureus ATCC 25923, P. aeruginosa ATCC 15442, Acinetobacter baumanii ATCC 15308, and one clinical isolate of each methicillin resistant S. aureus (MRSA), […], citrobacter spp., and K. pneumoniae were used in this study.
(§2) The minimum inhibitory concentration (MIC) of the peptides against 30 pneumococcal isolates was determined by broth microdilution protocol as indicated by the CLSI guidelines (Clinical and Laboratory Standards Institute). Briefly, bacterial strains were grown for 18–24 hr at 37°C under 5% CO2. Direct suspension of the colonies were made in cationically-adjusted Müeller-Hinton broth (CAMHB) and adjusted to OD 625 0.08–0.1 which corresponds to 1 ~ 2 x10^8 CFU/ml followed by serial ten-fold dilutions to give 1x10^6 CFU/ml. 50μl of bacterial suspension were added to 96-well round bottom microtiter plates containing equal volume of peptides at different concentrations (1.95, 3.90, 7.81, 15.62, 31.25, 62.5, 125, 250μg/ml) and the 96-well plates were incubated for 20-24hr at 37°C in the presence of 5% CO2.

citrobacter spp = type: cell-based
From the text: as §1, §2

P. aeruginosa ATCC 15442 = type: cell-based
From the text: as §1, §2

E. coli ATCC 25922 = type: cell-based
From the text: as §1, §2

[1] = test system: Acinetobacter baumanii ATCC 15308; type: cell-based
From the text: as §1, §2

[2] = test system: Methicillin resistant S. aureus (MRSA); type: cell-based
From the text: as §1, §2

Enterococcus cloacae = type: cell-based
From the text: as §1, §2

[3] = test system: S. pneumoniae (30 clinical isolates); type: cell-based, Streptococcus pneumoniae; conditions: for MIC S. pneumoniae (30 clinical isolates): broth microdilution, CAMHB, 20-24hr, 37°C, 5% CO2, lowest concentration that completely inhibits growth
From the text: as §1, §2

S. aureus = conditions: cited from earlier work
S. aureus ATCC 25923 = type: cell-based, Staphylococcus aureus
From the text: as §1, §2

E. coli = conditions: cited from earlier work
Streptococcus pneumoniae = test: Time killing assay; type: cell-based; conditions: 1×MIC, MHB, 37°C, sampled every 30 min to 240 min, triplicate
Protocol: The bactericidal activities of peptides were performed as described previously. […] 10μl of bacterial suspensions were removed at various time intervals (30, 60, 90, 120, 150, 180, 210, and 240 min), serially diluted in PBS and plated onto Columbia agar with 5% sheep blood for 20-24hr at 37°C in the presence of 5% CO2 to obtain viable colonies. Erythromycin and ceftriaxone were used as positive control and the assay was performed in triplicate.

[4] = test system: NL-20 normal lung cell line; type: cell-based, human
Protocol: (§3) CellTiter 96 AQueous Non-Radioactive Cell Proliferation assay (Promega, USA) was used to evaluate the cytotoxic effects of peptides. WRL-68 (ATCC CL-48) and NL-20 (ATCC CRL2503) cell lines were purchased from American Type Culture Collection (ATCC, USA). The cell lines were grown in Dulbecco's modified Eagle's medium (DMEM) and Ham’s F-12 medium, respectively. Cells were supplemented with 10% (v/v) fetal bovine serum (FBS) in T75 flasks and incubated at 37°C in the presence of 5% CO2. Cells were seeded into 96-well plates at a density of 1×10^4 and 3×10^4 cells per well, respectively. Peptides were added to the wells at different concentrations (1.95, 3.90, 7.81, 15.62, 31.25, 62.5, 125, and 250μg) and plates were incubated at 37°C under 5% CO2 for 24, 48, and 72 hrs. Medium with and without cells was used as positive and negative controls, respectively. After incubation, 20μl of the reagent were added to each well and incubated for 1 hr at 37°C under 5% CO2. Metabolically active cells convert the yellow MTS to purple formazan, allowing for monitoring of the reaction. The absorbance was monitored at 490 nm using GloMax Multi Detection System (Promega, USA). The percentage of viable cells was calculated according to the following formula: 100 (AT-AB/AC-AB), where AT and AC are the absorbance of treated and control cells (100% survival). AB is the absorbance of medium alone. The assay was done in triplicate.

[5] = test system: WRL-68 normal liver cell line; type: cell-based, human
Protocol: as §3

[6] = numbers in parentheses are micromolar concentrations
[7] = numbers in parentheses are micromolar concentrations, unit of the source corrected

Row | Molecule | MIC K. pneumoniae, in parentheses (K. pneumoniae; [6]) | MIC citrobacter spp, in parentheses (citrobacter spp; [6]) | MIC P. aeruginosa ATCC 15442, in parentheses (P. aeruginosa ATCC 15442; [7]) [µg/mL] | MIC E. coli ATCC 25922, in parentheses (E. coli ATCC 25922; [7]) [µg/mL] | MIC Acinetobacter baumanii ATCC 15308, in parentheses [1, 6] | MIC MRSA, in parentheses [2, 7] [µg/mL] | MIC Enterococcus cloacae, in parentheses (Enterococcus cloacae; [6]) | MIC S. pneumoniae (30 clinical isolates), in parentheses [3, 7] [µg/mL] | MIC S. aureus ATCC 25923, in parentheses (S. aureus ATCC 25923; [7]) [µg/mL] | time to completely kill 10^6 CFU/ml of S. pneumoniae (Streptococcus pneumoniae) [min] | concentration at which toxic, NL-20 [4] [µg/mL] | concentration at which toxic, WRL-68 [5] [µg/mL] | MIC S. pneumoniae (30 clinical isolates) [3] [µg/mL] | also measured
1 | CC[C@H](C)[C@H](N)C(=O)N[C@@H](CC(C)C)C(=O)N1CCC[C@H]1C(=O)N[C@@H](Cc1c[nH]c2ccccc12)C(=O)N[C@@H](CCCCN)C(=O)N[C@@H](Cc1c[nH]c2ccccc12)C(=O)N1CCC[C@H]1C(=O)N[C@@H](Cc1c[nH]c2ccccc12)C(=O)N[C@@H](Cc1c[nH]c2ccccc12)C(=O)N1CCC[C@H]1C(=O)N[C@@H](Cc1c[nH]c2ccccc12)C(=O)N[C@@H](CCCNC(=N)N)C(=O)N[C@@H](CCCNC(=N)N)C(N)=O [Indolicidin, reference compound] | >250 (>131) micromolar | >250 (>131) micromolar | 31.2 (≈ 16.4 µM) | 31.2 (≈ 16.4 µM) | >250 (131) micromolar | 31.2 (≈ 16.4 µM) | >250 (>131) micromolar | 15.6 to 31.2 (≈ 8.19 to 16.4 µM) |  |  |  |  |  | hemolytic activity (human erythrocytes): 56.98%
2 | CC[C@H](C)[C@H](NC(=O)[C@H](CCSC)NC(=O)[C@H](C)NC(=O)[C@@H]1CCCN1C(=O)[C@@H](NC(=O)[C@@H](NC(=O)[C@H](CCCCN)NC(=O)[C@@H](NC(=O)[C@H](CC(C)C)NC(=O)CNC(=O)CNC(=O)[C@H](CC(C)C)NC(=O)[C@@H](N)Cc1ccccc1)[C@@H](C)CC)[C@@H](C)CC)C(C)C)C(=O)N[C@H]1CSSC[C@@H](C(=O)O)NC(=O)[C@H](CCCCN)NC(=O)[C@H](CCCCN)NC(=O)[C@H]([C@@H](C)O)NC(=O)[C@H](C(C)C)NC(=O)[C@H](C)NC1=O [Ranalexin, reference compound] (H-FLGGLIKIVPAMICAVTKKC-OH; disulfide 14-20; N-terminus assumed) |  |  |  |  |  |  |  |  |  |  |  |  |  | MIC against S. aureus (S. aureus): 4 µg/mL (≈ 1.9 µM); MIC S. aureus ATCC 25923, in parentheses (S. aureus ATCC 25923; ATCC 25923): 31.2 µg/mL (≈ 14.9 µM); MIC K. pneumoniae, in parentheses (K. pneumoniae): >250 (>118) micromolar; MIC citrobacter spp, in parentheses (citrobacter spp): >250 (>118) micromolar; MIC P. aeruginosa ATCC 15442, in parentheses (P. aeruginosa ATCC 15442; ATCC 15442): 125 µg/mL (≈ 59.4 µM); MIC E. coli ATCC 25922, in parentheses (E. coli ATCC 25922; ATCC 25922): 62.5 µg/mL (≈ 29.7 µM); MIC Acinetobacter baumanii ATCC 15308, in parentheses ([1]; ATCC 15308): >250 (>118) micromolar; MIC MRSA, in parentheses ([2]; Methicillin resistant): 31.2 µg/mL (≈ 14.9 µM); MIC Enterococcus cloacae, in parentheses (Enterococcus cloacae): >250 (>118) micromolar; MIC against E. coli (E. coli): 32 µg/mL (≈ 15.2 µM); MIC S. pneumoniae (30 clinical isolates), in parentheses ([3]; 30 clinical isolates): 62.5 µg/mL (≈ 29.7 µM)
3 | FLGGLIKWKWPWWPWRR-NH2 [RN7-IN10, hybrid peptide of ranalexin and indolicidin] | >250 (>108) micromolar | >250 (>108) micromolar | 31.2 | 7.81 | 31.25 (13.51) micromolar | 7.81 | >250 (>108) micromolar | 7.81 to 15.6 | 7.81 | 30 | ≥ 125 | ≥ 62.5 | 7.81 to 15.62 | 
4 | FLGGLIKWPWWPWRR-NH2 [RN7-IN8, hybrid peptide of ranalexin and indolicidin] | >250 (>125) micromolar | >250 (>125) micromolar | 31.2 | 7.81 | 62.5 (31.3) micromolar | 7.81 | >250 (>125) micromolar | 7.81 to 15.6 | 7.81 | 120 | ≥ 125 | ≥ 62.5 | 7.81 to 15.62 | 
5 | FLGGLIKWWPWRR-NH2 [RN7-IN6, hybrid peptide of ranalexin and indolicidin] | >250 (>145.84) micromolar | >250 (>145.84) micromolar | 31.2 | 7.81 | 31.25 (18.23) micromolar | 7.81 | >250 (>145.84) micromolar | 7.81 to 15.6 | 7.81 | 240 | ≥ 125 | ≥ 62.5 | 7.81 to 15.62 | 
